Counter-ions that a name gives are not always drawn.
Target: T1, recombinant sEH (Homo sapiens, UniProt P34913)
T1 construct: made in house; host or cells: Sf9 insect cells
T1 sequence (P34913 1-555): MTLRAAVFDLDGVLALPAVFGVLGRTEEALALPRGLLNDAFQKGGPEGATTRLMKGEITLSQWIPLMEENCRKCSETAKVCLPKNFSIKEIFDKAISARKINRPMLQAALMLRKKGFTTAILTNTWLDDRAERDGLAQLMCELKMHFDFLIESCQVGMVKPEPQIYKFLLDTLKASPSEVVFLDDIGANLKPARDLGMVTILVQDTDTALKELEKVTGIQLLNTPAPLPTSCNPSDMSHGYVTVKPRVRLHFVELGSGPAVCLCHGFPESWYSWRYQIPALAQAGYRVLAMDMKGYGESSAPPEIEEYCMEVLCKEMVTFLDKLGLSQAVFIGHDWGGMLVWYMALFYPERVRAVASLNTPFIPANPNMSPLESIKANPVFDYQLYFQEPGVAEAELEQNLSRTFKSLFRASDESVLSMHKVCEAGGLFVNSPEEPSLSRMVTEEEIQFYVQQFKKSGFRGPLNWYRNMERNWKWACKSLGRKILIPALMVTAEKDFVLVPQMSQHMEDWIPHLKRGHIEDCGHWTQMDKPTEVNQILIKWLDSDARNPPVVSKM
Assay: biochemical screening assay for inhibition of soluble epoxide hydrolase (fluorometric, Phome substrate)
Summary of the method: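 Human sEH from Sf9 cells (2 nM final) was pre-incubated 15 min at 30 °C with compound (0.0001–10 μM), then reacted 60 min at 30 °C with 5 μM Phome in 25 mM Hepes/0.01% albumin. Fluorescence of released 6-methoxy-2-naphthaldehyde was read before substrate and at end; IC50 from % inhibition.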

First: O=C(NC1CCCCC1)N[C@H]1CO[C@H]2[C@@H]1OC[C@@H]2Oc1ccccc1CN1CCOCC1 [Example 123, 1-Cyclohexyl-3-[(3S,3aR,6S,6aS)-6-(2-morpholin-4-ylmethyl-phenoxy)-hexahydro-furo[3,2-b]furan-3-yl]-urea; trifluoroacetate]
Second: O=C(NC1CCCCC1)N[C@H]1CO[C@H]2[C@@H]1OC[C@@H]2Oc1ccccc1CN1CCCCC1 [Example 135, 1-Cyclohexyl-3-[(3S,3aR,6S,6aS)-6-(2-piperidin-1-ylmethyl-phenoxy)-hexahydro-furo[3,2-b]furan-3-yl]-urea; trifluoroacetate]
The IC50 of the first is 5-fold lower: 4 nM for the first, 20 nM for the second. The first is the more potent here.

`CC1(c2ccc(O[C@H]3CO[C@H]4[C@@H]3OC[C@@H]4NC(=O)NC3CCCCC3)cc2)CCCCC1` [Example 124, 1-Cyclohexyl-3-{(3S,3aR,6S,6aS)-6-[4-(1-methyl-cyclohexyl)-phenoxy]-hexahydro-furo[3,2-b]furan-3-yl}-urea] and `O=C(NC1CCCCC1)N[C@H]1CO[C@H]2[C@@H]1OC[C@@H]2Oc1ccc(Br)cc1` [Example 138, 1-[(3S,3aR,6S,6aS)-6-(4-Bromo-phenoxy)-hexahydro-furo[3,2-b]furan-3-yl]-3-cyclohexyl-urea] are within 1.5-fold of each other in IC50: 4 nM for the first, 3 nM for the second.

First: O=C(NC1CCCCC1)N[C@H]1CO[C@H]2[C@@H]1OC[C@@H]2Oc1cccc(C(F)(F)F)c1 [Example 125, 1-Cyclohexyl-3-[(3S,3aR,6S,6aS)-6-(3-trifluoromethyl-phenoxy)-hexa-hydro-furo[3,2-b]furan-3-yl]-urea]
Second: O=C(NC1CCCCC1)N[C@H]1CO[C@H]2[C@@H]1OC[C@@H]2Oc1cccc(Cl)c1 [Example 132, 1-[(3S,3aR,6S,6aS)-6-(3-Chloro-phenoxy)-hexahydro-furo[3,2-b]furan-3-yl]-3-cyclohexyl-urea]
The IC50 of the first is 1.5-fold higher: 3 nM for the first, 2 nM for the second. The second is the more potent here.

`O=C(NC1CCCCC1)N[C@H]1CO[C@H]2[C@@H]1OC[C@@H]2Oc1ccc(C(=O)N2CCNCC2)cc1` [Example 126, 1-Cyclohexyl-3-{(3S,3aR,6S,6aS)-6-[4-(piperazine-1-carbonyl)-phenoxy]-hexahydro-furo[3,2-b]furan-3-yl}-urea; trifluoroacetate] and `O=C(NC1CCCCC1)N[C@H]1CO[C@H]2[C@@H]1OC[C@@H]2Oc1cccc(N2CCNCC2)c1` [Example 142, 1-Cyclohexyl-3-[(3S,3aR,6S,6aS)-6-(3-piperazin-1-yl-phenoxy)-hexahydro-furo[3,2-b]furan-3-yl]-urea; trifluoroacetate] are the same in IC50: 30 nM for the first, 30 nM for the second.

First: O=C(NC1CCCCC1)N[C@H]1CO[C@H]2[C@@H]1OC[C@@H]2Oc1cccc(Oc2ccccn2)c1 [Example 127, 1-Cyclohexyl-3-{(3S,3aR,6S,6aS)-6-[3-(pyridin-2-yloxy)-phenoxy]-hexa-hydro-furo[3,2-b]furan-3-yl}-urea]
Second: O=C(NC1CCCCC1)N[C@H]1CO[C@H]2[C@@H]1OC[C@@H]2Oc1cccc(Br)c1 [Example 139, 1-[(3S,3aR,6S,6aS)-6-(3-Bromo-phenoxy)-hexahydro-furo[3,2-b]furan-3-yl]-3-cyclohexyl-urea]
The IC50 of the first is 3.5-fold higher: 7 nM for the first, 2 nM for the second. The second is the more potent here.

Compared with `O=C(NC1CCCCC1)N[C@H]1CO[C@H]2[C@@H]1OC[C@@H]2Oc1cccc(CNC2CC2)c1` [Example 128, 1-Cyclohexyl-3-[(3S,3aR,6S,6aS)-6-(3-cyclopropylaminomethyl-phenoxy)-hexahydro-furo[3,2-b]furan-3-yl]-urea; trifluoroacetate], `O=C(NC1CCCCC1)N[C@H]1CO[C@H]2[C@@H]1OC[C@@H]2Oc1cccc([N+](=O)[O-])c1` [Example 140, 1-Cyclohexyl-3-[(3S,3aR,6S,6aS)-6-(3-nitro-phenoxy)-hexahydro-furo[3,2-b]furan-3-yl]-urea] is 3.3-fold lower in IC50: 10 nM for the first, 3 nM for the second.

First: Cc1nc(-c2cccc(O[C@H]3CO[C@H]4[C@@H]3OC[C@@H]4NC(=O)NC3CCCCC3)c2)no1 [Example 129, 1-Cyclohexyl-3-{(3S,3aR,6S,6aS)-6-[3-(5-methyl-[1,2,4]oxadiazol-3-yl)-phenoxy]-hexahydro-furo[3,2-b]furan-3-yl}-urea]
Second: NC(=O)c1cccc(O[C@H]2CO[C@H]3[C@@H]2OC[C@@H]3NC(=O)NC2CCCCC2)c1 [Example 143, 3-[(3S,3aS,6S,6aR)-6-(3-Cyclohexyl-ureido)-hexahydro-furo[3,2-b]furan-3-yloxy]-benzamide]
The IC50 of the first is 3-fold lower: 2 nM for the first, 6 nM for the second.

Going from `O=C(NC1CCCCC1)N[C@H]1CO[C@H]2[C@@H]1OC[C@@H]2Oc1cccn2ccnc12` [Example 130, 1-Cyclohexyl-3-[(3S,3aR,6S,6aS)-6-(imidazo[1,2-a]pyridin-8-yloxy)-hexa-hydro-furo[3,2-b]furan-3-yl]-urea] to `O=C(NC1CCCCC1)N[C@H]1CO[C@H]2[C@@H]1OC[C@@H]2Oc1cc(F)ccc1Cl` [Example 131, 1-[(3S,3aR,6S,6aS)-6-(2-Chloro-5-fluoro-phenoxy)-hexahydro-furo[3,2-b]furan-3-yl]-3-cyclohexyl-urea], the IC50 falls from 38 nM to 2 nM (19-fold).

Going from `O=C(NC1CCCCC1)N[C@H]1CO[C@H]2[C@@H]1OC[C@@H]2Oc1cc(F)cc(F)c1` [Example 133, 1-Cyclohexyl-3-[(3S,3aR,6S,6aS)-6-(3,5-difluoro-phenoxy)-hexahydro-furo[3,2-b]furan-3-yl]-urea] to `O=C(NC1CCCCC1)N[C@H]1CO[C@H]2[C@@H]1OC[C@@H]2Oc1ccc(F)c(Br)c1` [Example 146, 1-[(3S,3aR,6S,6aS)-6-(3-Bromo-4-fluoro-phenoxy)-hexahydro-furo[3,2-b]furan-3-yl]-3-cyclohexyl-urea], the IC50 rises from < 1 nM to 2 nM. The first is the more potent here.

Compared with `O=C(NC1CCCCC1)N[C@H]1CO[C@H]2[C@@H]1OC[C@@H]2Oc1ccccc1C(=O)N1CCOCC1` [Example 134, 1-Cyclohexyl-3-{(3S,3aR,6S,6aS)-6-[2-(morpholine-4-carbonyl)-phenoxy]-hexahydro-furo[3,2-b]furan-3-yl}-urea], `O=C(NC1CCCCC1)N[C@H]1CO[C@H]2[C@@H]1OC[C@@H]2Oc1ccccc1CNCC1CCCO1` (stereo partly drawn) [Example 136, 1-Cyclohexyl-3-[(3S,3aR,6S,6aS)-6-(2-{[(tetrahydro-furan-2-ylmethyl)-ao]-methyl}-phenoxy)-hexahydro-furo[3,2-b]furan-3-yl]-urea; trifluoroacetate] is 11-fold higher in IC50: 20 nM for the first, 220 nM for the second.

Going from `O=C(NC1CCCCC1)N[C@H]1CO[C@H]2[C@@H]1OC[C@@H]2Oc1cccc2ccc(N3CCCC3)nc12` [Example 137, 1-Cyclohexyl-3-[(3S,3aR,6S,6aS)-6-(2-pyrrolidin-1-yl-quinolin-8-yloxy)-hexahydro-furo[3,2-b]furan-3-yl]-urea; trifluoroacetate] to `O=C(NC1CCCCC1)N[C@H]1CO[C@H]2[C@@H]1OC[C@@H]2Oc1cccc2c1CCC2=O` [Example 144, 1-Cyclohexyl-3-[(3S,3aR,6S,6aS)-6-(1-oxo-indan-4-yloxy)-hexahydro-furo[3,2-b]furan-3-yl]-urea], the IC50 falls from 4 nM to 1 nM (4-fold). The second is the more potent here.

Compared with `CCOC(=O)c1cccc(O[C@H]2CO[C@H]3[C@@H]2OC[C@@H]3NC(=O)NC2CCCCC2)c1` [Example 141, 3-[(3S,3aS,6S,6aR)-6-(3-Cyclohexyl-ureido)-hexahydro-furo[3,2-b]furan-3-yloxy]-benzoic acid ethyl ester], `COC(=O)c1ccc2cc(O[C@H]3CO[C@H]4[C@@H]3OC[C@@H]4NC(=O)NC3CCCCC3)ccc2c1` [Example 148, 6-[(3S,3aS,6S,6aR)-6-(3-Cyclohexyl-ureido)-hexahydro-furo[3,2-b]furan-3-yloxy]-naphthalene-2-carboxylic acid methyl ester] is 1.5-fold higher in IC50: 2 nM for the first, 3 nM for the second. The first is the more potent here.

Compared with `CC1CSc2c(O[C@H]3CO[C@H]4[C@@H]3OC[C@@H]4NC(=O)NC3CCCCC3)csc21` (stereo partly drawn) [Example 145, 1-Cyclohexyl-3-[(3S,3aR,6S,6aS)-6-(6-methyl-5,6-dihydro-thieno[3,2-b]thiophen-3-yloxy)-hexahydro-furo[3,2-b]furan-3-yl]-urea], `O=C(NC1CCCCC1)N[C@H]1CO[C@H]2[C@@H]1OC[C@@H]2Oc1cc(Br)ccc1Cl` [Example 147, 1-[(3S,3aR,6S,6aS)-6-(5-Bromo-2-chloro-phenoxy)-hexahydro-furo[3,2-b]furan-3-yl]-3-cyclohexyl-urea] is 7-fold lower in IC50: 14 nM for the first, 2 nM for the second.

Going from `CC(C)(C)NC(=O)N[C@H]1CO[C@H]2[C@@H]1OC[C@@H]2Oc1ccc(F)cc1` [Example 149, 1-tert-Butyl-3-[(3S,3aR,6S,6aS)-6-(4-fluoro-phenoxy)-hexahydro-furo[3,2-b]furan-3-yl]-urea] to `CC1CCC(NC(=O)N[C@H]2CO[C@H]3[C@@H]2OC[C@@H]3Oc2ccc(F)cc2)CC1` (stereo partly drawn) [Example 151, 1-[(3S,3aR,6S,6aS)-6-(4-Fluoro-phenoxy)-hexahydro-furo[3,2-b]furan-3-yl]-3-(4-methyl-cyclohexyl)-urea], the IC50 falls from 2160 nM to 8 nM (270-fold).

Compared with `O=C(NC1CCc2ccccc21)NC1COC2C(Oc3ccc(F)cc3)COC12` [Example 150, 1-[(3S,3aR,6S,6aS)-6-(4-Fluoro-phenoxy)-hexahydro-furo[3,2-b]furan-3-yl]-3-(S)-indan-1-yl-urea], `O=C(N[C@H]1CO[C@H]2[C@@H]1OC[C@@H]2Oc1ccc(F)cc1)N[C@@H]1CCC[C@H]1OCc1ccccc1` [Example 152, 1-((1R,2R)-2-Benzyloxy-cyclopentyl)-3-[(3S,3aR,6S,6aS)-6-(4-fluoro-phenoxy)-hexahydro-furo[3,2-b]furan-3-yl]-urea] is 8-fold lower in IC50: 16 nM for the first, 2 nM for the second.
